Ends that are not written are not given here.
What was measured:
C. albicans = test: Antifungal Test 1: survival of Candida by colony count after incubation with peptide; format: cell-based; details: for concentration showing a lethal ratio of 100%: Candida strain from oral cavity of a patient, 90 min at 37° C., colony count after 48 h
Experimental: The antifungal action against Candida was examined in order to confirm the antifungal effect of the present peptide. The peptide was synthesized by a conventional amino acid synthesis method using a peptide synthesizer manufactured by Shimazu Co. of Japan. The strain of Candida was isolated and provided from oral cavity of a patient in Glasgowden Hospital. The antifungal effect of the present peptide was evaluated using the above Candida strain according to the method of Edgerton et al (1998). Twenty μl of the suspension of C. albicans (1.8×10^5 cfu/mL) was mixed with the same amount of a peptide solution (0.325 μM-25 μM of the peptide concentration) and incubated for 90 min at 37° C. The reaction was stopped by adding Yeast Nitrogen Base medium. The resulting mixture was spread onto Sabouraud dextrose agar plate and incubated for 48 h at 37° C. The number of living strains was determined by colony count and survival percentage (%) was calculated in comparison with the number of colony (100%) obtained using 1 mM phosphate buffer as a control instead of the peptide solution.
The antifungal effect (∘) of the present peptide (JH8194Y) is compared with that of JH8194 (*) , His5:Histatin 5 ([…]:♦)(SEQ ID NO: 6), LFG: Bovine lactoferrin ([…]: ▪)fSEQ ID NO: 7), LFB frag (FKCRRWQWRMKKLG:▴)(SEQ ID NO: 8), and Dhvar 4: Histatin analog developed by Holland ACTA (KRLFKKLLFSLRKY: x)(SEQ ID NO: 9). The ordinate and abscissa axes of FIG. 1 indicate percentage survived of Candida, and the concentration of peptide, respectively.

Candida = details: cited from earlier work
human erythrocytes = test: Toxicity Test 1: hemolytic test using erythrocytes; format: cell-based; details: peptides 0.325-100 μM, FIG. 3
Experimental: A final concentration of the peptides was adjusted in a range of 0.325-100 μM, and the test was done using human erythrocytes in accordance with Nikawa H, Fukushima H, Makihira S, Hamada T, Samaranayake L P. Fungicidal effect of three new synthetic cationic peptides against Candida albicans. Oral Dis. 2004 July; 10(4): 221-8.

Compound | concentration showing a lethal ratio of 100% (C. albicans) [µM] | antifungal effect (comparison in words) (C. albicans; FIG. 1) | Minimal Fungicidal Concentration (Candida) [µM] | concentration eliciting hemolysis (human erythrocytes) [µM]
KRLFRRWQWRY | 1.25 | – | – | –
KRLFRRWQWRMKKY | 2.5 | much stronger antifungal effect than lactoferrin and lactoferrin B | – | –
DSHEKRHHGYKRKFHEKHHSHRGY (Synthetic peptide Histatin 5) [basic antifungal peptide of the Histatin family existing in saliva] | > 50 | – | – | –
C[C@@H]1[C@H](O)[C@@H](C)/C=C/C=C/C=C/C=C/C=C/C=C/C=C/[C@H](O[C@@H]2O[C@H](C)[C@@H](O)[C@H](N)[C@@H]2O)C[C@@H]2O[C@](O)(C[C@@H](O)C[C@@H](O)[C@H](O)CC[C@@H](O)C[C@@H](O)CC(=O)O[C@H]1C)C[C@H](O)[C@H]2C(=O)O [amphotericin B] | – | – | 5 | ≥ 5
